Assay results from paper PMC12040169 (PLOS Biology, 2025).

Assay: in vitro
Conditions: human, hela cells

SMILES	viability at 28.5 h, 10 µM (% viability) [%]	viability at 28.5 h, 10 µM [%]
CC(C)CC1CC(=O)Nc2c1c(=O)[nH]n2C(C)C (stereo not drawn) [CBK287924]	105	
Cc1noc(C)c1C(=O)N1CCC[C@@H](C(=O)c2ccccc2F)C1 [CBK282249]	90.5	
COc1cccc2sc(NC(=O)CCCN(C)C)nc12 [CBK149261]	93	
O=C(OCCC1SC(NC2CC3C=CC2C3)=NC1=O)c1c(F)cccc1Cl (stereo not drawn) [CBK200061T]	88.7	
CCN1CCN(C(=O)CN(C)S(=O)(=O)c2ccc(Cl)cc2)CC1 [CBK267218]	100	
O=C(O)CN1CCN(c2ncnc3sc4c(c23)CCCC4)CC1 [CBK286836]	99.5	
FC(F)(F)c1cccc(Sc2cccs2)n1 [CBK115242]	91.5	
O=C(Cc1ccc(F)cc1)N1CCC(c2cc3cnccc3[nH]2)CC1 [CBK283454]	85.7	
Nc1cc2ccccc2c(-c2ccsc2)n1 [CBK085710]	85.3	
Fc1ccc(CN2CCC(n3cnc4cccnc43)CC2)cc1 [CBK283580]	98.2	
O=C1C(=CNCCN2CCOCC2)C(=O)c2ccccc21 [CBK263008]	109	
Cc1c(CN(C)CC(=O)Nc2ccc(Br)cc2Cl)cnn1C [CBK304214]	86	
Cc1cccn2c(CN3CCC(O)CC3)c(C(=O)N3CCCCC3)nc12 [CBK307639]	104	
CCOC(=O)c1[nH]c2ccccc2c1NS(=O)(=O)Cc1ccccc1 [CBK047413]	93.1	
CCSc1ncc(Cl)c(C(=O)N(Cc2cccc(Br)c2)C2CCS(=O)(=O)C2)n1 (stereo not drawn) [CBK268969]	90.3	
Nc1ccc(-c2cnc(NCc3ccc4c(c3)OCO4)c(C(=O)Nc3ccc4c(c3)OCCO4)c2)cc1 [CBK138480T]	106	
Cc1nc(C)c(C(=O)NCC(C)(C)N2CCCCC2)o1 [CBK281866]	94.2	
O=S(=O)(Nc1ccc2ncccc2c1)c1ccc(OC(F)(F)F)cc1 [CBK045339]	99.7	

SMILES	viability at 28.5 h, 10 µM (% viability) [%]	viability at 28.5 h, 10 µM [%]
Cc1nc([N+](=O)[O-])c(SCC(O)CN2CCCCC2)[nH]1 (stereo not drawn) [CBK261727]	88.7	
c1ccc(CN2CCN(c3cncc(-c4cccs4)n3)CC2)nc1 [CBK065734]	98.1	
COc1ccc(CC(=O)N2CC[C@H]3NC(=O)N(c4ccccc4)C(=O)[C@H]32)cc1 [CBK289278]	92.7	
Cc1ccccc1CNCCNCC(C)O (stereo not drawn) [CBK268718C]	95.9	
COc1cccc(-c2ccc(C(=O)NCCNC(C)=O)c(N3CCOCC3)n2)c1 [CBK076465]	86.3	
Cc1ccc(Cl)cc1NC(=O)c1cc([N+](=O)[O-])ccc1NCCN1C(=O)c2ccccc2C1=O [CBK268501]	99.5	
O=C(O)CN1C(=O)S/C(=C\c2ccc([N+](=O)[O-])o2)C1=O [CBK017858]	97.7	
O=C(O)CSc1nc(Nc2ccccc2)nc(N2CCOCC2)n1 [CBK269023]	107	
CC(=O)Nc1cccc(Oc2nccnc2-c2cc3ccccc3s2)c1 [CBK106784]	101	
CNS(=O)(=O)c1ccc2c(c1)CCN2C(=O)C1C2CCCCC21 (stereo not drawn) [CBK281521]	100	
Cc1ccc(CN(CCCn2ccnc2)Cc2cccnc2)o1 [CBK283100]	106	
Nc1nonc1OCC(COc1nonc1N)(COc1nonc1N)COc1nonc1N [CBK011044]		85.6
CC(C)c1ccc(-n2ncc3c(=O)[nH]cnc32)cc1 [CBK288096]	70.7	
COc1ccc(C(C)NC(=O)c2c3c(nn2C)CCCC3)cc1F (stereo not drawn) [CBK281406]	106	
CN(C)c1ccc(-c2nc(-c3cccc(OC(F)(F)F)c3)cnc2N)cc1 [CBK063942]	98.3	
CSc1cc(-c2cccs2)[nH]c(=O)c1C#N [CBK006350]	79.7	
Cc1ccccc1C1NS(=O)(=O)NC1=N (stereo not drawn) [CBK263852]	96.5	
Cc1ccn(CCNC(=O)Cc2coc3cc(C)c(C)cc23)n1 [CBK282578]	107	
